Laboratory results taken from patent US11939331B2, “Tricyclic heterocycles as FGFR inhibitors” (Incyte Corporation, priority 2021, dated 2024).

What follows are compounds tested against wild-type un-phosphorylated FGFR3 protein (Homo sapiens, UniProt P22607) (assay: FGFR Enzymatic Assay (FRET peptide phosphorylation)).
Chain of wild-type un-phosphorylated FGFR3 protein (P22607 23-806): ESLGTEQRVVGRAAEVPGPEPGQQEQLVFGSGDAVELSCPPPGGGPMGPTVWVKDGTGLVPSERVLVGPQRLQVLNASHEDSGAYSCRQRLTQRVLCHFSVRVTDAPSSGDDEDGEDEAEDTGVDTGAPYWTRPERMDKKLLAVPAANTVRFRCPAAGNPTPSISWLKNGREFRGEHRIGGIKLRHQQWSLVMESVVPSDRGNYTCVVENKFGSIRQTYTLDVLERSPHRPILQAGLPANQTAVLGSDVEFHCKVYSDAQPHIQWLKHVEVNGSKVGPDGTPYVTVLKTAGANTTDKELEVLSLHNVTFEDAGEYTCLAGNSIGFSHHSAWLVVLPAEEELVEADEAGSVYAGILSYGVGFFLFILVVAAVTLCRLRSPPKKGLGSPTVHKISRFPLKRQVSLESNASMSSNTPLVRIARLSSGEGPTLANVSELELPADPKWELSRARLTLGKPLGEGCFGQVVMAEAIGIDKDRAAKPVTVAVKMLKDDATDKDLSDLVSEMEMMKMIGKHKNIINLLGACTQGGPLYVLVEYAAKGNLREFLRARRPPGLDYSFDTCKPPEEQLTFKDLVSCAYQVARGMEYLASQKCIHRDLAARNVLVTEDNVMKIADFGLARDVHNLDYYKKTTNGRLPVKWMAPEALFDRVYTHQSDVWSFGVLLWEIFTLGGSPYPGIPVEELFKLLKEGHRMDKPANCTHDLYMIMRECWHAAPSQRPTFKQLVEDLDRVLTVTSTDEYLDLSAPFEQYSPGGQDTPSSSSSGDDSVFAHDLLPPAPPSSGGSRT
Experimental: The inhibitor potency of the exemplified compounds was determined in an enzyme discontinuous assay that measures peptide phosphorylation using FRET measurements to detect product formation. Inhibitors were serially diluted in DMSO and a volume of 0.2 μL was transferred to the wells of a 384-well plate. A 5 μL/well volume of enzyme isoforms of FGFR (-1, -2, -3 wild-type and mutant isoforms, -4) including phosphorylated and un-phosphorylated proteins diluted in assay buffer (50 mM HEPES, 10 mM MgCl2, 1 mM EGTA, 0.01% Tween-20, 5 mM DTT, pH 7.5) was added to the plate and pre-incubated with inhibitor for 5 to 15 minutes at ambient temperature. Appropriate controls (enzyme blank and enzyme with no inhibitor) were included on the plate. The reaction was initiated by the addition of a 5 μL/well volume containing both biotinylated [sequence] peptide substrate (SEQ ID NO: 1) and ATP in assay buffer. The 10 μL/well reaction concentration of the peptide substrate was 500 nM whereas the ATP concentration was maintained near or below the ATP Km. The ATP Km values were pre-determined in a separate series of experiments. The reaction plate was incubated at 25° C. for 1 hr and the reactions were ended with the addition of 5 μL/well of quench solution (50 mM Tris, 150 mM NaCl, 0.5 mg/mL BSA, pH 7.8; 45 mM EDTA, 600 nM staurosporin, with Perkin Elmer Lance Reagents at 3.75 nM Eu-antibody PY20 and 180 nM APC-Streptavidin). The plate was allowed to equilibrate for ˜10 minutes at ambient temperature before scanning on a PheraStar plate reader (BMG Labtech) instrument.
Either GraphPad prism or XLfit was used to analyze the data. The IC50 values were derived by fitting the data to a four parameter logistic equation producing a sigmoidal dose-response curve with a variable Hill coefficient. Prism equation: Y=Bottom+(Top−Bottom)/(1+10^((Log IC50−X)*Hill slope)); XLfit equation: Y=(A+((B−A)/(1+((X/C)^D)))) where X is the logarithm of inhibitor concentration and Y is the response.

Question: `NC(=O)c1c(-c2c(Cl)cccc2Cl)nc2c3cc(-c4cnn(CCO)c4)cnc3ccn12` [Example 1, 2-(2,6-Dichlorophenyl)-9-(1-(2-hydroxyethyl)-1H-pyrazol-4-yl)imidazo[2,1-f][1,6]naphthyridine-3-carboxamide] was tested. Which IC50 did it give?
Answer: Its IC50 is < 100 pM.

Question: `CC(C)(O)Cn1cc(-c2cnc3ccn4c(C(N)=O)c(-c5c(Cl)cccc5Cl)nc4c3c2)cn1` [Example 2, 2-(2,6-Dichlorophenyl)-9-(1-(2-hydroxy-2-methylpropyl)-1H-pyrazol-4-yl)imidazo[2,1-f][1,6]naphthyridine-3-carboxamide] was tested. Which IC50 did it give?
Answer: The IC50 was < 100 pM.

Question: With `CC(C)(C(N)=O)n1cc(-c2cnc3ccn4c(C(N)=O)c(-c5c(Cl)cccc5Cl)nc4c3c2)cn1` [Example 3, 9-(1-(1-Amino-2-methyl-1-oxopropan-2-yl)-1H-pyrazol-4-yl)-2-(2,6-dichlorophenyl)imidazo[2,1-f][1,6]naphthyridine-3-carboxamide] as the compound, how does the IC50 read?
Answer: The IC50 was 100 to 1000 pM.

Question: How did the IC50 turn out when `NC(=O)c1c(-c2c(Cl)cccc2Cl)nc2c3cc(-c4ccc(C(=O)N5CCOCC5)cc4)cnc3ccn12` [Example 4, 2-(2,6-Dichlorophenyl)-9-(4-(morpholine-4-carbonyl)phenyl)imidazo[2,1-f][1,6]naphthyridine-3-carboxamide] was run?
Answer: The IC50 was < 100 pM.

Question: Which IC50 does the source give for `NC(=O)c1c(-c2c(Cl)cccc2Cl)nc2c3cc(-c4cn[nH]c4)cnc3ccn12` [Example 5, 2-(2,6-Dichlorophenyl)-9-(1H-pyrazol-4-yl)imidazo[2,1-f][1,6]naphthyridine-3-carboxamide] here?
Answer: Its IC50 is < 100 pM.

Question: With `CC(CC#N)n1cc(-c2cnc3ccn4c(C(N)=O)c(-c5c(Cl)cccc5Cl)nc4c3c2)cn1` (centres unmarked) [Example 6, 9-(1-(1-Cyanopropan-2-yl)-1H-pyrazol-4-yl)-2-(2,6-dichlorophenyl)imidazo[2,1-f][1,6]naphthyridine-3-carboxamide] as the compound, how does the IC50 read?
Answer: The IC50 was < 100 pM.

Question: Which IC50 does the source give for `CCC(O)Cn1cc(-c2cnc3ccn4c(C(N)=O)c(-c5c(Cl)cccc5Cl)nc4c3c2)cn1` (centres unmarked) [Example 7, 2-(2,6-Dichlorophenyl)-9-(1-(2-hydroxybutyl)-1H-pyrazol-4-yl)imidazo[2,1-f][1,6]naphthyridine-3-carboxamide] here?
Answer: Its IC50 is 100 to 1000 pM.

Question: For `NC(=O)c1c(-c2c(Cl)cccc2Cl)nc2c3cc(-c4cnn(CC5(F)CCOCC5)c4)cnc3ccn12` [Example 8, 2-(2,6-Dichlorophenyl)-9-(1-((4-fluorotetrahydro-2H-pyran-4-yl)methyl)-1H-pyrazol-4-yl)imidazo[2,1-f][1,6]naphthyridine-3-carboxamide], which IC50 is on record?
Answer: Its IC50 is < 100 pM.

Question: Which IC50 does the source give for `N#Cc1cncc(Cn2cc(-c3cnc4ccn5c(C(N)=O)c(-c6c(Cl)cccc6Cl)nc5c4c3)cn2)c1` [Example 9, 9-(1-((5-Cyanopyridin-3-yl)methyl)-1H-pyrazol-4-yl)-2-(2,6-dichlorophenyl)imidazo[2,1-f][1,6]naphthyridine-3-carboxamide] here?
Answer: Its IC50 is < 100 pM.

Question: How did the IC50 turn out when `N#Cc1cc(Cn2cc(-c3cnc4ccn5c(C(N)=O)c(-c6c(Cl)cccc6Cl)nc5c4c3)cn2)ccn1` [Example 10, 9-(1-((2-Cyanopyridin-4-yl)methyl)-1H-pyrazol-4-yl)-2-(2,6-dichlorophenyl)imidazo[2,1-f][1,6]naphthyridine-3-carboxamide] was run?
Answer: Its IC50 is < 100 pM.

Question: `NC(=O)c1c(-c2c(Cl)cccc2Cl)nc2c3cc(-c4cnn(Cc5ccncn5)c4)cnc3ccn12` [Example 11, 2-(2,6-Dichlorophenyl)-9-(1-(pyrimidin-4-ylmethyl)-1H-pyrazol-4-yl)imidazo[2,1-f][1,6]naphthyridine-3-carboxamide] was tested. Which IC50 did it give?
Answer: Its IC50 is < 100 pM.

Question: How did the IC50 turn out when `CC(c1ccnc(C#N)c1)n1cc(-c2cnc3ccn4c(C(N)=O)c(-c5c(Cl)cccc5Cl)nc4c3c2)cn1` (centres unmarked) [Example 12, 9-(1-(1-(2-Cyanopyridin-4-yl)ethyl)-1H-pyrazol-4-yl)-2-(2,6-dichlorophenyl)imidazo[2,1-f][1,6]naphthyridine-3-carboxamide] was run?
Answer: The IC50 was 100 to 1000 pM.

Question: How did the IC50 turn out when `NC(=O)c1c(-c2c(Cl)cccc2Cl)nc2c3cc(-c4ccc(C5CCS(=O)(=O)CC5)cc4)cnc3ccn12` [Example 13, 2-(2,6-Dichlorophenyl)-9-(4-(1,1-dioxidotetrahydro-2H-thiopyran-4-yl)phenyl)imidazo[2,1-f][1,6]naphthyridine-3-carboxamide] was run?
Answer: Its IC50 is 100 to 1000 pM.

Question: `NC(=O)c1c(-c2c(Cl)cccc2Cl)nc2c3cc(-c4ccc(N5CCS(=O)(=O)CC5)cc4)cnc3ccn12` [Example 14, 2-(2,6-Dichlorophenyl)-9-(4-(1,1-dioxidothiomorpholino)phenyl)imidazo[2,1-f][1,6]naphthyridine-3-carboxamide] was tested. Which IC50 did it give?
Answer: Its IC50 is < 100 pM.

Question: How did the IC50 turn out when `NC(=O)c1c(-c2c(Cl)cccc2Cl)nc2c3cc(-c4cnn(Cc5ncccn5)c4)cnc3ccn12` [Example 15, 2-(2,6-Dichlorophenyl)-9-(1-(pyrimidin-2-ylmethyl)-1H-pyrazol-4-yl)imidazo[2,1-f][1,6]naphthyridine-3-carboxamide] was run?
Answer: Its IC50 is < 100 pM.

Question: For `N#Cc1cccc(Cn2cc(-c3cnc4ccn5c(C(N)=O)c(-c6c(Cl)cccc6Cl)nc5c4c3)cn2)n1` [Example 16, 9-(1-((6-Cyanopyridin-2-yl)methyl)-1H-pyrazol-4-yl)-2-(2,6-dichlorophenyl)imidazo[2,1-f][1,6]naphthyridine-3-carboxamide], which IC50 is on record?
Answer: Its IC50 is < 100 pM.

Question: For `CC(=O)N1CCN(c2ccc(-c3cnc4ccn5c(C(N)=O)c(-c6c(Cl)cccc6Cl)nc5c4c3)cc2)CC1` [Example 17, 9-(4-(4-Acetylpiperazin-1-yl)phenyl)-2-(2,6-dichlorophenyl)imidazo[2,1-f][1,6]naphthyridine-3-carboxamide], which IC50 is on record?
Answer: The IC50 was < 100 pM.

Question: `NC(=O)c1c(-c2c(Cl)cccc2Cl)nc2c3cc(-c4ccc(N5CCN(C(=O)CO)CC5)cc4)cnc3ccn12` [Example 18, 2-(2,6-Dichlorophenyl)-9-(4-(4-(2-hydroxyacetyl)piperazin-1-yl)phenyl)imidazo[2,1-f][1,6]naphthyridine-3-carboxamide] was tested. Which IC50 did it give?
Answer: The IC50 was < 100 pM.

Question: `CC(=O)N1CCN(Cc2ccc(-c3cnc4ccn5c(C(N)=O)c(-c6c(Cl)cccc6Cl)nc5c4c3)cc2)CC1` [Example 19, 9-(4-((4-Acetylpiperazin-1-yl)methyl)phenyl)-2-(2,6-dichlorophenyl)imidazo[2,1-f][1,6]naphthyridine-3-carboxamide] was tested. Which IC50 did it give?
Answer: Its IC50 is < 100 pM.

Question: Which IC50 does the source give for `NC(=O)c1c(-c2c(Cl)cccc2Cl)nc2c3cc(-c4ccc(CN5CCN(C(=O)CO)CC5)cc4)cnc3ccn12` [Example 20, 2-(2,6-Dichlorophenyl)-9-(4-((4-(2-hydroxyacetyl)piperazin-1-yl)methyl)phenyl)imidazo[2,1-f][1,6]naphthyridine-3-carboxamide] here?
Answer: The IC50 was 100 to 1000 pM.

Question: For `CN1CCN(c2ccc(-c3cnc4ccn5c(C(N)=O)c(-c6c(Cl)cccc6Cl)nc5c4c3)cc2)CC1` [Example 21, 2-(2,6-Dichlorophenyl)-9-(4-(4-methylpiperazin-1-yl)phenyl)imidazo[2,1-f][1,6]naphthyridine-3-carboxamide], which IC50 is on record?
Answer: Its IC50 is < 100 pM.

Question: `NC(=O)c1c(-c2c(Cl)cccc2Cl)nc2c3cc(-c4ccc(C(=O)N5C[C@@H]6C[C@H]5CO6)cc4)cnc3ccn12` [Example 22, 9-(4-((1S,4S)-2-Oxa-5-azabicyclo[2.2.1]heptane-5-carbonyl)phenyl)-2-(2,6-dichlorophenyl)imidazo[2,1-f][1,6]naphthyridine-3-carboxamide] was tested. Which IC50 did it give?
Answer: The IC50 was < 100 pM.

Question: `N#CCn1cc(-c2cnc3ccn4c(C(N)=O)c(-c5c(Cl)cccc5Cl)nc4c3c2)cn1` [Example 23, 9-(1-(Cyanomethyl)-1H-pyrazol-4-yl)-2-(2,6-dichlorophenyl)imidazo[2,1-f][1,6]naphthyridine-3-carboxamide] was tested. Which IC50 did it give?
Answer: The IC50 was < 100 pM.

Question: Which IC50 does the source give for `NC(=O)c1c(-c2c(Cl)cccc2Cl)nc2c3cc(-c4cnn(C5CCOCC5)c4)cnc3ccn12` [Example 24, 2-(2,6-Dichlorophenyl)-9-(1-(tetrahydro-2H-pyran-4-yl)-1H-pyrazol-4-yl)imidazo[2,1-f][1,6]naphthyridine-3-carboxamide] here?
Answer: Its IC50 is 100 to 1000 pM.

Question: For `NC(=O)c1c(-c2c(Cl)cccc2Cl)nc2c3cc(-c4cnn(Cc5ccccc5)c4)cnc3ccn12` [Example 25, 9-(1-Benzyl-1H-pyrazol-4-yl)-2-(2,6-dichlorophenyl)imidazo[2,1-f][1,6]naphthyridine-3-carboxamide], which IC50 is on record?
Answer: The IC50 was 100 to 1000 pM.

Question: For `CS(=O)(=O)CCn1cc(-c2cnc3ccn4c(C(N)=O)c(-c5c(Cl)cccc5Cl)nc4c3c2)cn1` [Example 26, 2-(2,6-Dichlorophenyl)-9-(1-(2-(methylsulfonyl)ethyl)-1H-pyrazol-4-yl)imidazo[2,1-f][1,6]naphthyridine-3-carboxamide], which IC50 is on record?
Answer: Its IC50 is < 100 pM.

Question: Which IC50 does the source give for `CC(C#N)n1cc(-c2cnc3ccn4c(C(N)=O)c(-c5c(Cl)cccc5Cl)nc4c3c2)cn1` (centres unmarked) [Example 27, 9-(1-(1-Cyanoethyl)-1H-pyrazol-4-yl)-2-(2,6-dichlorophenyl)imidazo[2,1-f][1,6]naphthyridine-3-carboxamide] here?
Answer: The IC50 was < 100 pM.

Question: How did the IC50 turn out when `NC(=O)c1c(-c2c(Cl)cccc2Cl)nc2c3cc(-c4cnn(CC(F)F)c4)cnc3ccn12` [Example 28, 2-(2,6-Dichlorophenyl)-9-(1-(2,2-difluoroethyl)-1H-pyrazol-4-yl)imidazo[2,1-f][1,6]naphthyridine-3-carboxamide] was run?
Answer: The IC50 was < 100 pM.

Question: `CN1CCC(n2cc(-c3cnc4ccn5c(C(N)=O)c(-c6c(Cl)cccc6Cl)nc5c4c3)cn2)CC1` [Example 29, 2-(2,6-Dichlorophenyl)-9-(1-(1-methylpiperidin-4-yl)-1H-pyrazol-4-yl)imidazo[2,1-f][1,6]naphthyridine-3-carboxamide] was tested. Which IC50 did it give?
Answer: Its IC50 is < 100 pM.

Question: Which IC50 does the source give for `CC(C)(CO)n1cc(-c2cnc3ccn4c(C(N)=O)c(-c5c(Cl)cccc5Cl)nc4c3c2)cn1` [Example 30, 2-(2,6-Dichlorophenyl)-9-(1-(1-hydroxy-2-methylpropan-2-yl)-1H-pyrazol-4-yl)imidazo[2,1-f][1,6]naphthyridine-3-carboxamide] here?
Answer: The IC50 was < 100 pM.

Question: How did the IC50 turn out when `CC(C)(C#N)n1cc(-c2cnc3ccn4c(C(N)=O)c(-c5c(Cl)cccc5Cl)nc4c3c2)cn1` [Example 31, 9-(1-(2-Cyanopropan-2-yl)-1H-pyrazol-4-yl)-2-(2,6-dichlorophenyl)imidazo[2,1-f][1,6]naphthyridine-3-carboxamide] was run?
Answer: The IC50 was < 100 pM.

Question: For `NC(=O)c1c(-c2c(Cl)cccc2Cl)nc2c3cc(-c4cnn(C5CC5)c4)cnc3ccn12` [Example 32, 9-(1-Cyclopropyl-1H-pyrazol-4-yl)-2-(2,6-dichlorophenyl)imidazo[2,1-f][1,6]naphthyridine-3-carboxamide], which IC50 is on record?
Answer: Its IC50 is < 100 pM.
